From ChEMBL document CHEMBL1135560, “Parallel synthesis and anti-malarial activity of a sulfonamide library” (Bioorg Med Chem Lett, 2002) come the findings set out here.

Molecules are shown by their SMILES.

For assay [1], the system named is Plasmodium falciparum. Put plainly: Growth inhibition of Plasmodium falciparum at 10 nM. In kind it is functional.
In assay [2] the test system is Plasmodium falciparum. Description: Antimalarial activity against chloroquine-resistant Plasmodium falciparum FcB1. In kind it is functional, organism-based.
In assay [3] the test system is MRC5. Put plainly: Cytotoxicity tests were performed on a human diploid embryonic lung cell line (MRC5) using the colorimetric MTT assay. In kind it is functional, cell-based.

`Cc1ccc(S(=O)(=O)NCCCN2CCN(CCCNc3ccnc4cc(Cl)ccc34)CC2)cc1`: the inhibition at 0.01 µM in assay [1] was determined as 54%.
On to `O=S(=O)(Cc1ccccc1)NCCCN1CCN(CCCNc2ccnc3cc(Cl)ccc23)CC1`, for which the inhibition at 0.01 µM in assay [1] is 4%.
Take `Cc1ccc([N+](=O)[O-])cc1S(=O)(=O)NCCCN1CCN(CCCNc2ccnc3cc(Cl)ccc23)CC1`: in assay [1], 0.01 µM produced 56% inhibition.
`O=S(=O)(NCCCN1CCN(CCCNc2ccnc3cc(Cl)ccc23)CC1)c1ccc(Cl)cc1` yielded an inhibition at 0.01 µM in assay [1] of 26%.
Same read-out and setting: in the case of `O=[N+]([O-])c1ccccc1S(=O)(=O)NCCCN1CCN(CCCNc2ccnc3cc(Cl)ccc23)CC1` it was 0%; in that of `CC(=O)c1cccc(S(=O)(=O)NCCCN2CCN(CCCNc3ccnc4cc(Cl)ccc34)CC2)c1`, 22%.
`O=[N+]([O-])c1cccc(S(=O)(=O)NCCCN2CCN(CCCNc3ccnc4cc(Cl)ccc34)CC2)c1` returned an inhibition at 0.01 µM in assay [1] of 48%.
For the molecule `O=S(=O)(NCCCN1CCN(CCCNc2ccnc3cc(Cl)ccc23)CC1)c1cc(C(F)(F)F)ccc1Cl`, in assay [1], 0.01 µM produced 60% inhibition.
Take `CCS(=O)(=O)NCCCN1CCN(CCCNc2ccnc3cc(Cl)ccc23)CC1`: 0.01 µM produced 1% inhibition in assay [1].
`Clc1ccc2c(NCCCN3CCN(CCCNc4ccnc5cc(Cl)ccc45)CC3)ccnc2c1` yielded a half-inhibitory concentration (IC50) in assay [2] of 0.112 µM.
As to `COc1ccc(Br)cc1S(=O)(=O)NCCCN1CCN(CCCNc2ccnc3cc(Cl)ccc23)CC1`, the inhibition at 0.01 µM in assay [1] was determined as 64%.
On to `O=S(=O)(NCCCN1CCN(CCCNc2ccnc3cc(Cl)ccc23)CC1)c1ccc(F)cc1`, for which the inhibition at 0.01 µM in assay [1] came out at 20%.
As to `O=S(=O)(/C=C/c1ccccc1)NCCCN1CCN(CCCNc2ccnc3cc(Cl)ccc23)CC1`, the inhibition at 0.01 µM in assay [1] is 0%.
Still for that read-out and setting: in the case of `O=S(=O)(NCCCN1CCN(CCCNc2ccnc3cc(Cl)ccc23)CC1)c1ccccc1F` it was 11%; in that of `CC(C)S(=O)(=O)NCCCN1CCN(CCCNc2ccnc3cc(Cl)ccc23)CC1`, 25%.
Take `CCN(CC)CCCC(C)Nc1ccnc2cc(Cl)ccc12` (stereo unspecified) [CHLOROQUINE]: the IC50 in assay [3] came to 50 µM.
